Results as given in ChEMBL document CHEMBL4420080, “Inhibitors of sox18 protein activity for treating angiogenesis- and/or lymphangiogenesis-related diseases” (2018).
Active and inactive are the calls of the source. The calls are words filed in the database; no cut-off is given here.

Columns and labels:
[1] = test system: 4T1.2; test: Antitumor activity against mouse 4T1.2 cells implanted in BALB/c mouse assessed as median disease latency time at 25 mg/kg/day for 10 days (Rvb =33 days); format: functional
[2] = molecular target: T1, Transcription factor SOX-18 (Mus musculus) (UniProt P43680); test: (§1) Competitive binding affinity to full-length mouse SOX18 expressed in Sf9 cells assessed as reduction in SOX1 8- DNA binding by measuring FP-bound fraction at 200 uM using FAM-labelled Prox1 -DNA element incubated for 5 mins in dark at room temperature, 10 mins at 37 degC and 30 mins at room temperature by fluorescence polarization assay relative to control; set-up: scale not given: the % may be the effect or the level left
T1 sequence (whole entry): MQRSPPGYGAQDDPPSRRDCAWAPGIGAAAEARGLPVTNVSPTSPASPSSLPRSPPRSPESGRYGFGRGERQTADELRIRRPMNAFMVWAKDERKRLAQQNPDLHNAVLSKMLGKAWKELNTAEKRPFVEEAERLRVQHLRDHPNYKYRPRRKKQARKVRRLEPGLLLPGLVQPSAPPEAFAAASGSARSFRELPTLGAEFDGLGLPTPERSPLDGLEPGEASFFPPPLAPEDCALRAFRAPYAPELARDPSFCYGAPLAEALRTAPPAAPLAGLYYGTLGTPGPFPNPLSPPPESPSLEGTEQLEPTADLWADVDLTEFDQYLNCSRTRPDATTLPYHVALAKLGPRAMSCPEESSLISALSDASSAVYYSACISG

[3] = molecular target: T1, Transcription factor SOX-18 (Mus musculus); test: as §1, with “50” for “200”; set-up: scale not given: the % may be the effect or the level left
[4] = Cytotoxicity in HEK293 cells assessed as reduction in cell viability incubated for 24 hrs by Alamar blue dye based assay; conditions: human
[5] = Cytotoxicity in human HepG2 cells assessed as reduction in cell viability incubated for 24 hrs by Alamar blue dye based assay
[6] = Critical micellar concentration of the compound; format: physicochemical
[7] = Cytotoxicity in African green monkey COS7 cells assessed as reduction in cell viability incubated for 24 hrs by Alamar blue dye based assay; set-up: species or system COS-7; conditions: chlorocebus aethiops
[8] = molecular target: T1, Transcription factor SOX-18 (Mus musculus); test: as §1, with “binding” for “binding by measuring FP-bound fraction at 200 uM”, “element at 1 to 1000 uM” for “element”, “assay” for “assay relative to control”

Row | Structure (SMILES) | CMC [6] [µM] | CC50 at 24 h [7] [µM] | also measured
1 | CC(=O)Oc1ccccc1C(=O)O [ASPIRIN] |  |  | Time [1]: 44 days
2 | CCN(CC)C(=O)c1c(CCc2ccc3ccccc3c2)cccc1OC |  |  | Activity [2]: 117%; Activity [3]: 100%; CC50 at 24 h [4]: 62.6 µM; CC50 at 24 h [5]: 38.5 µM
3 | O=C(COc1ccc2ccccc2c1)c1ccc(O)cc1O | > 1000 | 98.6 | 
4 | Cc1cc(O)c(C(=O)O)c(CCc2ccc3ccccc3c2)c1 |  |  | CC50 at 24 h [5]: 377 µM
5 | Cc1ccc(Cl)c(Nc2ccccc2C(=O)O)c1Cl |  |  | Activity [8]: Active
6 | Cc1cccc2c(=O)c3c(O)cc(O)cc3oc12 | > 1000 | > 200 | 
7 | COC(=O)c1c(O)cccc1CCc1ccc2ccccc2c1 | 20 |  | 
8 | COC(=O)c1c(O)cccc1CCCCC(C)CCCC(C)C (stereo unspecified) | 20 |  | 
9 | COc1ccc(OCC(=O)c2ccc(O)cc2O)cc1 | > 1000 | > 200 | 
10 | CCN(CC)C(=O)c1c(CCc2ccc3ccccc3c2)cc(OC)cc1OC |  |  | Activity [2]: 107%; Activity [3]: 97.3%; CC50 at 24 h [4]: 85.8 µM; CC50 at 24 h [5]: 35.8 µM
11 | O=C(O)c1c(O)cccc1COCCc1ccccc1 |  | > 200 | 
12 | COc1cccc(CCCCCCc2ccccc2)c1C(=O)O | > 1000 | > 200 | 
13 | O=C(O)c1cccnc1Nc1cccc(C(F)(F)F)c1 |  |  | Activity [8]: Active
14 | O=C(O)c1ccccc1Nc1cccc(C(F)(F)F)c1 |  |  | Activity [8]: Active
15 | CCCCCCCCCc1cccc(OC)c1C(=O)OC | 20 |  | 
16 | O=C1N=C(N2CCCC2)S/C1=C/c1ccc(O)cc1O | > 1000 | > 200 | 
17 | COc1cc(O)c(C(=O)O)c(C=Cc2ccc3ccccc3c2)c1 (mixture of isomers) |  |  | Activity [2]: 19.8%
18 | CC(C)CCCC(C)CCCCc1cccc(O)c1C(=O)O (stereo unspecified) | 30 |  | 
19 | CCCCCCCCCc1cccc(O)c1C(=O)OC | 20 |  | 
20 | COc1cccc(C=Cc2ccc3ccccc3c2)c1C(=O)O (mixture of isomers) |  |  | CC50 at 24 h [5]: > 100 µM
